Laboratory results reported in patent publication US9775902B2, “Compounds and methods for treatment of stroke” (FIBROGEN, INC, priority 2006, dated 2017).
Where two headings read alike, the source gives them in different places. Marks after values point to notes of the source that are not given here.

Columns and labels:
[1] = tested on: erythropoietin (EPO); test: EPO expression in Hep3B cells (QUANTIKINE immunoassay of conditioned media); type: cell-based, Human; details: for Fold Increase Over Control: EPO, vs 1% DMSO control; for EPO: conditioned media after overnight incubation with compound
Experimental: The effect of compounds of the present invention on expression of cytoprotective and neuroprotective factors in cells was evaluated as follows. Human cells derived from hepatocarcinoma (Hep3B) tissue (see, e.g., American Type Culture Collection, Manassas Va.) were seeded into 35 mm culture dishes and grown at 37° C., 20% O2, 5% CO2 in Minimal Essential Medium (MEM), Earle's balanced salt solution (Mediatech Inc., Herndon Va.), 2 mM L-glutamine, 0.1 mM non-essential amino acids, 1 mM sodium pyruvate, and 10% FBS. When cell layers reached confluence, the media was replaced with OPTI-MEM media (Invitrogen Life Technologies, Carlsbad Calif.) and cell layers were incubated for approximately 24 hours in 20% O2, 5% CO2 at 37° C. Various compounds of the present invention or 1% DMSO (negative control) were then added to existing media and incubation was continued overnight.
Following incubation, the conditioned media was collected from cell cultures and analyzed for erythropoietin (EPO) expression using a QUANTIKINE immunoassay (R&D Systems, Inc., Minneapolis Minn.) according to the manufacturer's instructions.

[2] = tested on: erythropoietin (EPO); test: EPO expression in Kelly neuroblastoma cells; type: cell-based; details: for EPO: conditioned media after overnight incubation
Experimental: (§1) The effect of compounds of the present invention on expression of cytoprotective and neuroprotective factors in neuroblastoma cells was evaluated as follows. Kelly neuroblastoma cells (see, e.g., DSMZ, cat# ACC-355, Braunschweig Germany) were treated with various compounds of the present invention or 1% DMSO (negative control). Following an overnight incubation, the conditioned media was collected from cell cultures and analyzed for erythropoietin (EPO) and vascular endothelial growth factor (VEGF) expression using a QUANTIKINE immunoassay (R&D Systems, Inc., Minneapolis Minn.) according to the manufacturer's instructions.

[3] = tested on: vascular endothelial growth factor (VEGF); test: VEGF expression in Kelly neuroblastoma cells; type: cell-based; details: for VEGF: conditioned media after overnight incubation
Experimental: as §1

[4] = tested on: erythropoietin; test: Plasma EPO in mice after intravenous injection; type: in vivo, Swiss Webster mice; details: mouse plasma, 20 mg/kg i.v., four hours after injection; for fold induction at 20 mg/kg: iv, 4 h, read-out: EPO Fold Increase; for EPO: mouse EPO ELISA kit (**)
Experimental: (§2) The effect of compounds of the present invention on expression of cytoprotective and neuroprotective factors in vivo was evaluated as follows. In one series of experiments, male Swiss Webster mice (29-34 g) were administered various compounds of the present invention via intravenous injection into the caudal tail vein. Animals treated by intravenous injection received a 6 ml/kg volume of either 5% Dextrose with an equimolar amount of NaOH or Meglumine (vehicle control) or 20 mg/kg of a compound of the present invention in 5% dextrose with an equimolar amount of NaOH or Meglumine. Four hours after injection, the animals were anesthetized and exsanguinated. Plasma samples were collected in EDTA and heparin coated microtainer tubes. Plasma samples were assayed for erythropoietin and VEGF using commercially-available ELISA kits purchased from R & D Systems (Minneapolis Minn.).

[5] = tested on: VEGF; test: Plasma VEGF in mice after intravenous injection; type: in vivo, Swiss Webster mice; details: mouse plasma, 20 mg/kg i.v., four hours after injection; for fold induction at 20 mg/kg: iv, 4 h, read-out: VEGF Fold Increase
Experimental: as §2

[6] = tested on: C57BL/6 mice, permanent occlusion of the MCA; test: Permanent middle cerebral artery occlusion (pMCAO) in C57BL/6 mice: infarct volume and edema; type: in vivo; details: C57BL/6 mice pMCAO, 20-60 mg/kg i.v.; for inhibition in vivo at up to 20 mg/kg: Mus musculus, iv, 24 h, 24 hours after MCA occlusion, read-out: Percent Reduction in Infarct Volume
Experimental: The effect of compounds of the present invention on infarct volume and edema associated with stroke was examined in an animal model of ischemic stroke. In these studies, mice were subjected to permanent occlusion of the middle cerebral artery. Mice were anesthetized intraperitoneally with avertin (0.5 mg/g). Mice were then immobilized in a rodent stereotaxic frame (Kopf Instruments, Tujunga Calif.) and maintained with avertin as needed. The surgical area of the head was swabbed with 70% ethanol and a lateral incision was made between the right orbit and the right ear. […] The distal course of the middle cerebral artery (MCA) was visible through the translucent skull. A small burr-hole craniotomy was performed with a micro-drill (Fine Science Tools, Foster City Calif.). The meninges/dura was removed and the MCA was coagulated by bipolar diathermy. The muscle and soft tissue were replaced and the incision closed with vet-bond adhesive (3M, St. Paul Minn.). These studies were performed in two different mouse models of pMCAO as described below.
In one series of experiments, male C57BL/6 mice (25-35 g) were subjected to permanent occlusion of the MCA as described above. Compounds of the present invention were administered by intravenous injection at various times before or after MCA occlusion (see Table 7). Animals administered compound by intravenous injection received a 6 ml/kg volume of either 5% Dextrose with an equimolar amount of Meglumine (vehicle control) or 20-60 mg/kg of a compound of the present invention in 5% dextrose with an equimolar amount of Meglumine. Body temperature of the animals was maintained by use of a heating pad both during and after surgery. Twenty-four hours after MCA occlusion animals were euthanized with CO2 and their brains removed. After removal, the brain was sliced in 7 coronal sections, each 1 mm thick. The sections were placed rostral side down in a petri dish and stained with 1% Triphenyl tetrazolium chloride for 20 minutes at 37° C. for determination of infarct volume. Brain sections were then digitally photographed and analyzed for changes in infarct volume and extent of edema. Infarct volumes were determined by measuring the infarcted (i.e., non-stained) areas of each brain section and multiplying this value by the section thickness. Extent of edema was determined by the net increase in volume of the ipsilateral cortex compared to that of the contralateral cortex of brain sections.
The effect of compounds of the present invention administered at various times following the onset of stroke was examined further as follows. In these studies, changes in infarct volume were measured using an animal model of stroke when compounds of the present invention were administered from 0 to 8 hours following permanent MCA occlusion. In one series of experiments, male C57BL/6 mice (25-35 g) were subjected to permanent occlusion of the MCA as described above. Compound F was administered to the animals by a single intravenous bolus injection at various times up to 5 hours after MCA occlusion (see Table 8 below). Animals administered compound by intravenous injection received a 6 ml/kg volume of either 5% Dextrose with an equimolar amount of NaOH (vehicle control) or 60 mg/kg of Compound F in 5% dextrose with an equimolar amount of NaOH. Body temperature of the animals was maintained by use of a heating pad both during and after surgery. Changes in infarct volumes were determined as described above.
In another set of experiments, male C57BL/6 mice (25-35 g) were subjected to permanent occlusion of the MCA as described above. Compound F was administered by single intravenous bolus injection at various times up to 8 hours after MCA occlusion (see Table 9 below). Animals administered compound by intravenous injection received a 6 ml/kg volume of either 5% Dextrose with an equimolar amount of Meglumine (vehicle control) or 60 mg/kg of Compound F in 5% dextrose with an equimolar amount of Meglumine. […]

[7] = tested on: erythropoietin; test: Plasma EPO in mice after oral gavage; type: in vivo, Swiss Webster mice; details: mouse plasma, oral gavage 6-60 mg/kg, six hours
Experimental: (§3) In another series of experiments, male Swiss Webster mice (29-34 g) were administered various compounds of the present invention via oral gavage using a ball-tipped gavage needle. Animals treated by oral gavage received a 4-10 ml/kg volume of either 0.5% carboxymethyl cellulose with or without 0.1% Polysorbate 80 (vehicle control) or various doses (6-60 mg/kg) of a compound of the present invention in 0.5% CMC, with or without 0.1% Polysorbate 80. Blood samples were collected and tissues were processed as described above. Six hours after injection, the animals were anesthetized and exsanguinated.
(§4) Plasma samples were collected in EDTA and heparin coated microtainer tubes. Plasma samples were assayed for erythropoietin and VEGF using commercially-available ELISA kits purchased from R & D Systems (Minneapolis Minn.).

[8] = tested on: VEGF; test: Plasma VEGF in mice after oral gavage; type: in vivo, Swiss Webster mice; details: mouse plasma, oral gavage 6-60 mg/kg, six hours
Experimental: as §3, §4

[9] = compound given 4 hr after occlusion

| Structure (SMILES) | Fold Increase Over Control [1] | EPO [1] [mIU/ml] | EPO Fold Increase [2] | EPO [2] [mIU/ml] | VEGF Fold Increase [3] | VEGF [3] [pg/mL] | fold induction at 20 mg/kg [4] | EPO [4] [pg/mL] | fold induction at 20 mg/kg [5] | VEGF [5] [pg/mL] | Percent Reduction in Edema ([6]; compound given 0 hr) | inhibition in vivo at up to 20 mg/kg ([6]; compound given 0 hr) [%] | inhibition in vivo at up to 20 mg/kg [6, 9] [%] | EPO Fold Increase [7] | EPO ([7]; human EPO ELISA kit (*)) [mIU/ml] | VEGF [8] [pg/mL] | VEGF Fold Increase [8] | EPO ([7]; mouse EPO ELISA kit (**)) [pg/mL] |
| --- | --- | --- | --- | --- | --- | --- | --- | --- | --- | --- | --- | --- | --- | --- | --- | --- | --- | --- |
| O=Cc1nc(C(=O)NCC(=O)O)c(O)c2cc(Oc3ccccc3)ccc12 [Compound AK, [(1-Formyl-4-hydroxy-6-phenoxy-isoquinoline-3-carbonyl)-amino]-acetic acid] | 14.9 | 35.3 | 2.23 | 42.2 | 3.9 | 5698 | 62.8 | 2763 | 1.12 | 47 | −12* % | 13 | – | – | – | – | – | – |
| N#Cc1nc(C(=O)NCC(=O)O)c(O)c2ccc(Oc3ccc(F)cc3)cc12 [Compound R, {[1-Cyano-7-(4-fluoro-phenoxy)-4-hydroxy-isoquinoline-3-carbonyl]-amino}-acetic acid] | 25.3 | 49.1 | 19.71 | 372.6 | 7.4 | 2735 | 52.4 | 555.5 | 1.38 | 54 | – | 32 | – | – | – | – | – | – |
| O=C(O)CNC(=O)c1nc(Br)c2ccsc2c1O [Compound AE, [(4-Bromo-7-hydroxy-thieno[3,2-c]pyridine-6-carbonyl)-amino]-acetic acid] | 3.0 | 12.6 | 3.6 | 95.5 | 2.7 | 3710.0 | – | 3825 | 1.45 | 29 | – | – | 63 | – | – | – | – | – |
| N#Cc1nc(C(=O)NCC(=O)O)c(O)c2cc(Oc3ccc4c(c3)OCO4)ccc12 [Compound AN, {[6-(Benzo[1,3]dioxol-5-yloxy)-1-cyano-4-hydroxy-isoquinoline-3-carbonyl]-amino}-acetic acid] | 16.2 | 42.8 | 13.28 | 251 | 5.3 | 7252 | 26.2 | 14964 | 1.05 | 39 | – | – | 46 | – | – | – | – | – |
| CC(NC(=O)c1ncc2cc(Sc3ccccc3)ccc2c1O)C(=O)O (stereo not drawn) [Compound Y, 2-[(4-Hydroxy-7-phenylsulfanyl-isoquinoline-3-carbonyl)-amino]-propionic acid] | – | – | – | – | – | – | – | – | – | – | – | – | – | 8.85 | 11.5 | 52.7 | 2.28 | – |
| Cc1nc2ccc(Oc3ccc4c(O)c(C(=O)NCC(=O)O)nc(C)c4c3)cc2o1 [Compound AF, {[4-Hydroxy-1-methyl-7-(2-methyl-benzooxazol-6-yloxy)-isoquinoline-3-carbonyl]-amino}-acetic acid] | 15.3 | 101.6 | 12.24 | 231.3 | 3.5 | 5124 | 21.3 | 192 | 2.83 | 82 | – | 21 | – | – | – | – | – | – |
| C#Cc1nc(C(=O)NCC(=O)O)c(O)c2ccsc12 [Compound M, [(7-Ethynyl-4-hydroxy-thieno[2,3-c]pyridine-5-carbonyl)-amino]-acetic acid] | 11.6 | 64.1 | 285 | 57 | 2.0 | 1436 | 180 | 161.6 | 1.31 | 38 | – | – | – | 1.26 | – | 38 | 1.23 | 8.8 |
| Cc1nc(C(=O)NCC(=O)O)c(O)c2cc(-c3ccc(F)cc3)sc12 [Compound P, {[2-(4-Fluoro-phenyl)-4-hydroxy-7-methyl-thieno[2,3-c]pyridine-5-carbonyl]-amino}-acetic acid] | 7.2 | 54.9 | 13.90 | 262.8 | 5.1 | 7453 | 5.88 | 62.3 | 1.15 | 45 | – | 37 | – | – | – | – | – | – |
